These results are taken from EP4722208A1, “NOVEL BENZAMIDE DERIVATIVE COMPOUND AND PHARMACEUTICAL COMPOSITION COMPRISING SAME” (Samjin Pharmaceutical Co., Ltd., priority 2023, dated 2024).

In assay [1] the target is T1, Recombinant NAMPT protein (Homo sapiens, UniProt P43490).
T1 construct: purchased BPS bioscience # 7176-1
The assay can be described thus: NAMPT enzyme inhibition assay (BPS bioscience NAMPT Inhibitor Screening Assay Kit, fluorescence). Type of assay: biochemical. The conditions noted are these: 30 min pre-incubation, 2 h at 30°C, compound 1000 nM to 3 nM, n=2. How it is done:
The NAMPT enzyme activity inhibition ability of the compound of the present invention was evaluated using the NAMPT Inhibitor Screening Assay Kit (# 7176-1) from BPS bioscience. Recombinant NAMPT protein was added to each well of a black 96-well plate, and dilution buffer was added to a blank well instead of NAMPT protein. A 5 x concentrated compound solution was added and pre-incubated at room temperature (approximately 22°C) for 30 minutes before the start of the reaction so that the compound and protein might bind before the enzyme reaction. At this time, the concentration of NAMPT protein was adjusted and used according to the enzyme activity of each protein lot within the final concentration range of 4-10 ng/µl, and the test compound was serially diluted at a ratio of 1:3 from 1000 nM to 3 nM, and experiments were conducted with n=2 for about seven concentrations. A 2 x concentrated test buffer containing ATP (final concentration of 20 µM), nicotinamide (final concentration of 20 µM), phosphoribosyl pyrophosphate (PRPP, final concentration of 40 µM), and ethanol (final concentration of 1.5%) was added, and the plate was incubated at 30°C for two hours, after which the fluorescence of a resulting reaction product was measured with excitation of 340 nm and emission of 460 nm. The NAMPT enzyme activity (%) was calculated by subtracting the measurement value of the blank well without NAMPT protein from the measurement value of all wells, and then taking the measurement value of the control well without the compound as 100%.

Assay [2] relates to HCT-116 cell lines. The assay can be described thus: Cellular NAD measurement assay (NAD/NADH-Glo Assay). Type of assay: cell-based. The conditions noted are these: Homo sapiens; intracellular NAD+/NADH levels, HCT-116 cells, 24 hours treatment, 0.1 nM to 100 nM. How it is done:
With regard to HCT-116 cell lines, the decrease in intracellular NAD+ and NADH levels due to the inhibition of NAMPT enzyme activity by compounds was evaluated using the product of NAD/NADH-Glo™ Assay (Promega, G9072) from Promega. The cells were incubated using DMEM (Gibco, 11995-065) medium containing 10% FBS. The HCT-116 cells were incubated for 24 hours after being distributed at a density of 2,500 cells per well in a 96-well plate, and were treated with a drug using a serum-free DMEM. First, a compound was dissolved in 100% dimethyl sulfoxide (DMSO), and then diluted in the culture medium so that the final concentration of DMSO might reach 0.5%, and treated with the drug. The final concentration range of the compounds was 0.1 nM to 100 nM. After that, they were further incubated for 24 hours at 37°C and CO2 5%. To conduct the NAD/NADH-Glo™ Assay, the culture medium of drug-treated cells was removed, and 50 µL of DPBS was treated per well, and left at room temperature for five minutes. The required amount of NAD/NADH-Glo™ Detection Reagent (Reconstituted Luciferin Detection Reagent 1 mL, Reductase 5 µL, Reductase Substrate 5 µL, NAD Cycling Enzyme 5 µL, NAD Cycling Substrate 25 µL) was prepared according to the manufacturer's manual and treated in an amount of 50 µL per well. After incubating for two minutes at 400 rpm in a plate shaker for cell lysis, the cells were incubated for 30 minutes at room temperature, and luminescence was measured. NAD+/NADH levels were calculated by subtracting the measurement value of the blank well without cells from the measurement value of all wells and taking the 0.5% DMSO-treated control as 100%.

Assay [3] relates to HCT116 colorectal cancer cell lines. The experiment in a line: Tumor cytotoxicity assay (MTT). The assay is classed as cell-based. The conditions noted are these: Homo sapiens, HCT-116, HCT116 cells, 72 hours treatment, 0.1 nM to 1000 nM. How it is done: The anticancer efficacy of the compound of the present invention was evaluated using the MTT analysis method in HCT116 colorectal cancer cell lines. The cells were incubated using DMEM medium containing 10% FBS. The cells were distributed in a 96-well plate at a density of 2,500 cells per well, the HCT116 cells were incubated for 24 hours, and then treated with a drug using a serum free DMEM. First, a compound was prepared in 100% dimethyl sulfoxide (DMSO) at a concentration of 0.02 µM to 200 µM, diluted in the culture medium so that the final concentration of DMSO might reach 0.5%, and treated with the drug so that the final concentration of the compound might range from 0.1 nM to 1000 nM. After that, they were further incubated for 72 hours at 37°C and CO2 5% and treated with MTT (Sigma-Aldrich, M2128) to confirm cytotoxicity. Formazan produced from reduction by enzymes in the mitochondria of living cells was measured using Spark® Multimode Microplate Reader TECAN equipment. A cell viability (%) was relatively determined by subtracting a reference 650 nm optical density (O.D.) from 570 nm O.D., in which the 0.5% DMSO-treated control was set as a standard of 100%. […]

T1 sequence (P43490 whole entry): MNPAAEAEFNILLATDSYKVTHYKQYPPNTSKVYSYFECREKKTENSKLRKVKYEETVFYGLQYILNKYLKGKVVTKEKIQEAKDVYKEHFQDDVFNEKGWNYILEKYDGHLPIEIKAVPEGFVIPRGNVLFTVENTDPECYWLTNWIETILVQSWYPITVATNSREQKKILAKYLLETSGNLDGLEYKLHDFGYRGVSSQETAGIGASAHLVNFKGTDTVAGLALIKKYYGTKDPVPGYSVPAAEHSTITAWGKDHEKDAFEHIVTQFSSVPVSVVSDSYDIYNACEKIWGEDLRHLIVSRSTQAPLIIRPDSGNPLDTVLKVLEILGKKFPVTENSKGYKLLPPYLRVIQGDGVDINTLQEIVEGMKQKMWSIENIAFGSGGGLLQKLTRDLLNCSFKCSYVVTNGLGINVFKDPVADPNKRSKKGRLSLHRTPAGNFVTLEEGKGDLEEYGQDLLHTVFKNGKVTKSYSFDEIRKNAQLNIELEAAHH

Usually IC50 stands for the midpoint of a concentration-inhibition curve. The CC50 is the concentration at which the toxic effect on the cells reaches its halfway point. A lower CC50 goes with greater toxicity to the cells. In the case of `Cn1ccc(CS(=O)(=O)c2ccc(C(=O)NCCCc3cn[nH]c3)cc2C#Cc2ccc(F)cc2)n1` [compound 1, N-(3-(1H-pyrazol-4-yl)propyl)-3-((4-fluorophenyl)ethynyl)-4-(((1-methyl-1H-pyrazol-3-yl)methyl)sulfonyl)benzamide], the IC50 in assay [1] was less than 500 nM; in assay [2], not above 10 nM. This molecule also came in with a CC50 in assay [3] not above 30 nM.

On to `Cn1ccc(CS(=O)(=O)c2ccc(C(=O)NCc3ccn4ccnc4c3)cc2C#Cc2ccc(F)cc2)n1` [compound 2, 3-((4-fluorophenyl)ethynyl)-N-(imidazo[1,2-a]pyridin-7-ylmethyl)-4-(((1-methyl-1H-pyrazol-3-yl)methyl)sulfonyl)benzamide], for which the IC50 is less than 500 nM in assay [1] and not above 10 nM in assay [2]. The molecule also returned a CC50 in assay [3] not above 30 nM.

Take `O=C(NCCCc1cn[nH]c1)c1ccc(S(=O)(=O)Cc2ccn(-c3ccncc3)n2)c(C#Cc2ccc(F)cc2)c1` [compound 10, N-(3-(1H-pyrazol-4-yl)propyl)-3-((4-fluorophenyl)ethynyl)-4-(((1-(pyridin-4-yl)-1H-pyrazol-3-yl)methyl)sulfonyl)benzamide]: the IC50 was less than 500 nM in assay [1] and not above 10 nM in assay [2]. Further, in assay [3], the CC50 is not above 30 nM.

For `Cn1ccc(CS(=O)(=O)c2ccc(C(=O)NCc3ccn4ccnc4c3)cc2C#Cc2ccc(N)cc2)n1` [compound 228, 3-((4-aminophenyl)ethynyl)-N-(imidazo[1,2-a]pyridin-7-ylmethyl)-4-(((1-methyl-1H-pyrazol-3-yl)methyl)sulfonyl)benzamide], the IC50 is less than 500 nM in assay [1] and not above 10 nM in assay [2]. In addition, in assay [3], the CC50 is not above 30 nM.

In the case of `Cn1ccc(CS(=O)(=O)c2ccc(C(=O)NCc3ccn4ccnc4c3)cc2C#Cc2cccc(N)c2)n1` [compound 229, 3-((3-aminophenyl)ethynyl)-N-(imidazo[1,2-a]pyridin-7-ylmethyl)-4-(((1-methyl-1H-pyrazol-3-yl)methyl)sulfonyl)benzamide], the IC50 in assay [1] is less than 500 nM; in assay [2], not above 10 nM. For the same molecule, in assay [3], the CC50 is not above 30 nM.

As to `Cn1ccc(CS(=O)(=O)c2ccc(C(=O)NCc3ccn4ccnc4c3)cc2C#Cc2cccc(C(=O)N3CCNCC3)c2)n1` [compound 230, N-(imidazo[1,2-a]pyridin-7-ylmethyl)-4-(((1-methyl-1H-pyrazol-3-yl)methyl)sulfonyl)-3-((3-(piperazine-1-carbonyl)phenyl)ethynyl)benzamide], the IC50 in assay [1] is less than 500 nM; in assay [2], 10 to 1000 nM. This molecule also had a 50% cytotoxic concentration (CC50) in assay [3] of 100 to 1000 nM.

Consider `Cn1ccc(CS(=O)(=O)c2ccc(C(=O)NCc3cnc4nccn4c3)cc2C#Cc2ccc(F)cc2)n1` [compound 238, 3-((4-fluorophenyl)ethynyl)-N-(imidazo[1,2-a]pyrimidin-6-ylmethyl)-4-(((1-methyl-1H-pyrazol-3-yl)methyl)sulfonyl)benzamide], for which, in assay [1], the IC50 is less than 500 nM. This molecule also had a CC50 in assay [3] of 100 to 1000 nM.

Consider `Cn1ccc(CS(=O)(=O)c2ccc(C(=O)NCc3ccn4ccnc4c3)cc2C#Cc2ccc(N)c(F)c2)n1` [compound 241, 3-((4-amino-3-fluorophenyl)ethynyl)-N-(imidazo[1,2-a]pyridin-7-ylmethyl)-4-(((1-methyl-1H-pyrazol-3-yl)methyl)sulfonyl)benzamide], for which, in assay [1], the IC50 was less than 500 nM. This molecule also yielded a CC50 in assay [3] not above 30 nM.
